Measurements published in patent US4902791A, “Nitrosourea derivatives, process for their preparation and medicaments containing them” (Sanofi S.A., priority 1983, dated 1990).

Experiments:
[1] = toxicological results, single I.P. dose, DL0 and DL50; assay type: in vivo, mouse; conditions: mice; for LD50: mouse, in vivo, ip
Text: DL0, DL50, single I.P. dose administered to the aforementioned strains of mice.

L1210 U.S.A. = test: antitumor activity on leukemia L1210 U.S.A., products of examples 33-39, I.P.; assay type: in vivo, mouse
Protocol: The experiments were always carried out on female mice which were specific pathogen-free (S. P. F.),
either of the line DBA/2JIco
or of the line B6 D2 F1/JIco (first generation hybrids between the lines C57BL/6 and DBA/2).
On the day of the graft (by convention day 0=D0) an inoculum of 1×10^5 tumor cells in a volume of 0.2 ml is administered to each mouse by the intraperitoneal route (I.P.).
This inoculum is prepared by diluting ascites fluid taken from the peritoneum of a donor female mouse in NCTC 109 medium (Eurobio Laboratories, Paris, France), counting of the cells in a MALASSEZ cell under a microscope and adjustment of the concentration to 5×10^5cells […] by means of the same medium.
The tumor line is an American strain of the line L1210.
After the tumor graft, the mice are distributed at random in cages of 5 animals. Subsequently, these cages containing 5 mice are themselves distributed at random into a control group (control) and groups treated with the I.C. products.
(§1) The doses of the products of the invention used in the different experiments are expressed in milligrams per kilogram of body weight.
(§2) The products to be injected were dissolved in isotonic sodium chloride solution.
2 protocols for treatment were used in the different experiments:
either a single injection on D1, by the intraperitoneal (I.P.) or intravenous (I.V.) route,
(§3) or 3 I.P. injections on D1, D5, D9.
(§4) In each experiment the animals of the control group received 1 or more injections, depending on the experimental protocol used, by the same route (I.P. or I.V.) of the same volume (0.2 ml/20 g) of the vehicle without the active principle (isotonic sodium chloride solution).
(§5) the number and percentage of the total of the mice surviving to D60,
(§6) the T/C×100 for the treated groups.
(§7) T representing the mean survival time of the mice in the treated group,
(§8) C representing the mean survival time of the mice in the control group (controls).

melanoma B16 [2] = test: antitumor activity on melanoma B16, products of examples 33-39, I.P.; assay type: in vivo, mouse; conditions: B6 D2 F1, I.P. D1, D5, D9, 3×10 mg/kg
Protocol: The experiments are always carried out on SPF female mice, B6 D2 F1/JIco (first generation hybrids between the lines C57BL/6 and DBA/2).
(§9) On the day of the graft (day 0), an inoculum of 2×10^6 tumor cells in a volume of 0.5 ml is administered to each mouse by the intraperitoneal route (I.P.). This inoculum is prepared from a sub-cutaneous tumor excised from a donor female mouse. After excision the tumor is fragmented by means of a pair of scissors in the NCTC 109 medium. After filtration through sterile gauze in order to remove large cellular fragments, the homogeneous cell suspension obtained is counted by means of a MALASSEZ cell and diluted to the desired concentration (4×10^6tumor cells per ml) by dilution with the NCTC 109 medium.
This was performed in the manner described for the leukemia L1210 (see above).
as §1, §2, §3, §4, §5, §6, §7, §8

colon carcinoma C38 [3] = test: colon carcinoma C38, comparison of I.V. and I.P. routes, treatment days 8, 12, 16; assay type: in vivo, mouse; design: key to Median wt. of the tumor D20 / Median wt. of the tumor D27: median tumor weight in mg
Protocol: With a view to verifying the antitumor activity of the product of the invention CI.1671 when it is administered by the I.V. route, another experiment was performed in which this product was administered by the I.P. route and the I.V. route for the purposes of comparison.
This experiment is carried out under particularly difficult conditions, the first day of the treatment corresponding to the eighth day after the implantation of the carcinoma C38, whereas normally the treatment starts on the day of implantation of the tumor (D0) or 1 day after (D1) the implantation of the tumor.
The median weight of the tumors on the first day of treatment (day 8) is about 12 mg (tumors varying from 8 to 40 mg). The animals are treated on days 8, 12 and 16 depending on the different routes indicated. […]

L1210 U.S.A. strain = test: antitumor activity on leukemia L1210 U.S.A., compounds of formula IA, I.P.; assay type: in vivo, mouse
Protocol: On the day of the graft (by convention day 0=DO) an inoculum of 1×10^5 tumor cells in a volume of 0.2 ml is administered to each mouse by the intraperitoneal route (I.P.).
This inoculum is prepared by diluting ascites fluid taken from the peritoneum of a donor female mouse in NCTC 109 medium (Eurobio Laboratories Paris, France), counting of the cells in a MALASSEZ cell under a microscope and adjustment of the concentration to 5×10^5cells per ml.
After the tumor graft has been made, the mice are distributed at random in cages of 5 animals. Subsequently, these cages containing 5 mice are themselves distributed at random into a control group (control) and groups treated with the products of the invention.
as §1, §2
Two protocols for treatment were used in the different experiments:
as §3
(§10) In each experiment the animals of the control group received 1 or more injections, depending on the experimental protocol used, by the same route (I.P. or I.V.) of the same volume (0.2 ml/20 g) of the vehicle not containing the active principle (isotonic sodium chloride solution).
as §5
(§11) the T/C×100 for treated groups.
(§12) T representing the mean survival time of the mice in the treated group
(§13) C representing the mean survival time of the mice in the control group (control).

colon carcinoma C38 [4] = test: activity on colon carcinoma C38 implanted subcutaneously, I.P. days 2 and 9; assay type: in vivo, mouse
Protocol: A tumor fragment is implanted on day 0 in female B6 D2 F1 mice (19-22 g). The treatment with all of the products is administered by the I.P. route on days 2 and 9 (which is a delayed treatment). The weight of the tumors is calculated on day 20.

[5] = toxicological study, lethal doses (Table IA); conditions: mouse, in vivo
Text: The results relating to toxicology are brought together in Table IA below:

melanoma B16 [6] = test: antitumor activity on melanoma B16, compounds of formula IA, I.P.; assay type: in vivo, mouse; conditions: B6 D2 F1, I.P. D1, D5, D9, 3×10 mg/kg
Protocol: The experiments were always carried out on SPF female mice B6 D2 F1/JIco (first generation hybrids between the lines C5BL/6 and DBA/2).
as §9, with “(Day 0)” for “(day 0),”, “(4×10^6 tumor” for “(4×10^6tumor”
This was performed in the manner described previously for the leukemia L1210.
as §1, §2, §3, §10, §5, §11, §12, §13

melanoma B16 [7] = test: activity toward melanoma B16 implanted subcutaneously, I.V. route; assay type: in vivo, mouse
Protocol: The activity of the substances of the invention was also tested by administering the said substances of the invention by the I.V. route. 0.5 ml of an homogenate of the tumor (1 g/10 ml) is administered to B6C3F1 female mice by the subcutaneous (S.C. route) on day 0. The products of the invention and the substances used for comparison are administered on days 3, 7 and 11 in isotonic solution.
In Table IIA below the results are presented relating to the activity of the substance CI. 1675 administered by the I.V. route on the growth of the melanoma B16 implanted subcutaneously, in comparison with carmustine BCNU marketed under the name of BiCNU®.
In Table IIA below and in the subsequent tables, T represents the mean weight (or median) of the tumors in the treated mice, C represents the mean weight (or median) of the tumors in the control, untreated mice and the ratio T/C% corresponds to T/C×100.

[8] = B6 D2 F1, I.P. D1, D5, D9, 3×1.25 mg/kg
[9] = B6 D2 F1, I.P. D1, D5, D9, 3×5 mg/kg
[10] = B6 D2 F1, I.P. D1, D5, D9, 3×10 mg/kg
[11] = DBA2, I.P. D1, D5, D9, 3×5 mg/kg
[12] = I.P., 10 mg/kg/inj. days 2 and 9
[13] = I.P., 20 mg/kg/inj. days 2 and 9
[14] = I.P., 30 mg/kg/inj. days 2 and 9

## CO[C@H]1C[C@@H](NC(=O)N(CCCl)N=O)[C@H](O)[C@@H](CO)O1 [IC. 85-1673, methyl 3-[3-(2-chloroethyl) 3-nitrosoureido] 2,3-dideoxy β-D-arabino-hexopyranoside]
[1]
  LD50: ~20 mg/kg
L1210 U.S.A.; [8]
  Number of survivors: 0/10
  T/C: 158
L1210 U.S.A.; [9]
  Number of survivors: 6/10
  T/C: 626
Melanoma B16 [2]
  Number of survivors: 4/10
  T/C: 232

## CO[C@@H]1O[C@H](C)C[C@H](NC(=O)N(CCCl)N=O)[C@H]1O [IC. 85-1591, methyl 3-[3-(2-chloroethyl) 3-nitrosoureido] 3,4,6-trideoxyβ-D-xylo-hexopyranoside]
[1]
  DL0: ≥ 20 mg/kg
  LD50: ~40 mg/kg
L1210 U.S.A.; [8]
  Number of survivors: 0/10
  T/C: 116
L1210 U.S.A.; [9]
  Number of survivors: 2/10
  T/C: 217
L1210 U.S.A.; [10]
  Number of survivors on D60: 8/10
  T/C: 600
L1210 U.S.A.; DBA2, I.P. D1, 1×20 mg/kg
  Number of survivors on D60: 7/10
  T/C: > 600
L1210 U.S.A.; [11]
  Number of survivors on D60: 6/10
  T/C: > 600
Melanoma B16 [2]
  Number of survivors: 3/10
  T/C: 194

## CO[C@@H]1O[C@H](CO)C[C@H](NC(=O)N(CCCl)N=O)[C@H]1O [CI. 1675, methyl 3-[3-(2-chloroethyl) 3-nitrosoureido] 3,4-dideoxy-β-D-xylo-hexopyranoside]
Colon carcinoma C38 [3]; I.P. Route, 10 mg/kg/inj.
  Median wt. of the tumor D20: 324
  Median wt. of the tumor D27: 1099
  Mice without tumor/total D20: 0
  Mice without tumor/total D27: 0
  T/C % D20: 57%
  T/C % D27: 84%
Colon carcinoma C38 [3]; I.P. Route, 15 mg/kg/inj.
  Median wt. of the tumor D20: 88
  Median wt. of the tumor D27: 726
  Mice without tumor/total D20: 0
  Mice without tumor/total D27: 0
  T/C % D20: 15%
  T/C % D27: 56%
Colon carcinoma C38 [3]; I.P. Route, 20 mg/kg/inj.
  Median wt. of the tumor D20: 13
  Median wt. of the tumor D27: 172
  Mice without tumor/total D20: 1/8
  Mice without tumor/total D27: 2/8
  T/C % D20: 2%
  T/C % D27: 13%
Colon carcinoma C38 [3]; I.V. Route, 10 mg/kg/inj.
  Median wt. of the tumor D20: 23
  Median wt. of the tumor D27: 352
  Mice without tumor/total D20: 0/8
  Mice without tumor/total D27: 0/8
  T/C % D20: 4%
  T/C % D27: 27%
Colon carcinoma C38 [3]; I.V. Route, 15 mg/kg/inj.
  Median wt. of the tumor D20: 0
  Median wt. of the tumor D27: 0
  Mice without tumor/total D20: 7/8
  Mice without tumor/total D27: 7/7
  T/C % D20: 0%
  T/C % D27: 0%
Colon carcinoma C38 [3]; I.V. Route, 20 mg/kg/inj.
  Median wt. of the tumor D20: 0
  Median wt. of the tumor D27: 0
  Mice without tumor/total D20: 6/8
  Mice without tumor/total D27: 6/6
  T/C % D20: 0%
  T/C % D27: 0%
L1210 U.S.A. strain; [8]
  Number of survivors at D60: 0/10
  T/C: 164
L1210 U.S.A. strain; [9]
  Number of survivors at D60: 5/10
  T/C: > 600
Colon carcinoma C38 [4]; I.P. route, delayed treatment
  efficacy against the colon carcinoma C38: considerable efficacy
Colon carcinoma C38 [4]; [12]
  Number of mice without tumor/total: 1/10
  T/C: 67%
  Weight of the tumor on day 20: 272 mg
Colon carcinoma C38 [4]; [13]
  Number of mice without tumor/total: 7/9
  T/C: 0%
  Weight of the tumor on day 20: 0 mg
Colon carcinoma C38 [4]; [14]
  Number of mice without tumor/total: 7/7
  T/C: 0%
  Weight of the tumor on day 20: 0 mg
  dead mice (remarks): 5
[5]
  LD0: ≥ 20 mg/kg
  LD50: ~40 mg/kg
Melanoma B16 [6]
  Number of survivors at D60: 8/10
  T/C: 258
Melanoma B16 [7]; 10 mg/kg/inj. days 3, 7, 11
  Median weight of the tumor on day 3: 32,0 mg
  Median weight of the tumor on day 30: 2 025 mg
  T/C on day 30 (tumor weight): 25,9%
Melanoma B16 [7]; 15 mg/kg/inj. days 3, 7, 11
  Median weight of the tumor on day 3: 23,0 mg
  Median weight of the tumor on day 30: 1 044 mg
  T/C on day 30 (tumor weight): 13,4%
Melanoma B16 [7]; 20 mg/kg/inj. days 3, 7, 11
  Median weight of the tumor on day 3: 36,0 mg
  Median weight of the tumor on day 30: 688 mg
  T/C on day 30 (tumor weight): 8,8%
